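In this assay, cells in 96-well plates receive the compound at five concentrations for 48 hours. Endpoints are linearly interpolated between the surrounding concentrations. GI50 marks 50% less growth.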 Active and inactive are the calls of the source. Cut-off read from the data, not from the text of the source: active = GI50 up to about 1.1 µM and inactive = higher.
What was measured:
Test in all cases: NCI tumour cell line growth inhibition, 48 h
KM12 = tested on: KM12
UACC-257 = tested on: UACC-257
COLO 205 = tested on: COLO 205
HOP-92 = tested on: HOP-92
HT-29 = tested on: HT-29
K562 = tested on: K562
A498 = tested on: A498
A549 = tested on: A549
NCI-H522 = tested on: NCI-H522
Malme-3M = tested on: Malme-3M
SK-MEL-2 = tested on: SK-MEL-2
EKVX = tested on: EKVX
T47D = tested on: T47D
UACC-62 = tested on: UACC-62
SK-MEL-28 = tested on: SK-MEL-28
HCT-116 = tested on: HCT-116
SF-539 = tested on: SF-539
M14 = tested on: M14
786-0 = tested on: 786-0
LOX IMVI = tested on: LOX IMVI
HL-60 = tested on: HL-60
SF-268 = tested on: SF-268
SNB-75 = tested on: SNB-75
CCRF-CEM = tested on: CCRF-CEM
U-251 = tested on: U-251
HCC 2998 = tested on: HCC 2998
SNB-19 = tested on: SNB-19
ACHN = tested on: ACHN
MCF7 = tested on: MCF7
Hs-578T = tested on: Hs-578T
HCT-15 = tested on: HCT-15
TK-10 = tested on: TK-10
MOLT-4 = tested on: MOLT-4
MDA-N = tested on: MDA-N
OVCAR-4 = tested on: OVCAR-4
HOP-62 = tested on: HOP-62
SF-295 = tested on: SF-295
PC-3 = tested on: PC-3
NCI-H460 = tested on: NCI-H460
NCI-H226 = tested on: NCI-H226
SN12C = tested on: SN12C
SK-OV-3 = tested on: SK-OV-3
MDA-MB-435 = tested on: MDA-MB-435
OVCAR-8 = tested on: OVCAR-8
SW-620 = tested on: SW-620
RXF 393 = tested on: RXF 393
SR = tested on: SR
CAKI-1 = tested on: CAKI-1
NCI-H23 = tested on: NCI-H23
RPMI-8226 = tested on: RPMI-8226
DU-145 = tested on: DU-145
OVCAR-3 = tested on: OVCAR-3
UO-31 = tested on: UO-31
SK-MEL-5 = tested on: SK-MEL-5
NCI/ADR-RES = tested on: NCI/ADR-RES
IGROV-1 = tested on: IGROV-1
MDA-MB-231 = tested on: MDA-MB-231
BT-549 = tested on: BT-549
OVCAR-5 = tested on: OVCAR-5

COC(=O)C(Cc1c[nH]c2ccccc12)NC1=Nc2ccncc2S(=O)(=O)N1c1ccccc1 (stereo not drawn)
GI50 (KM12): 31.3 µM (inactive) | GI50 (UACC-257): 50.1 µM (inactive) | GI50 (COLO 205): 17.6 µM (inactive) | GI50 (HOP-92): 20.7 µM (inactive) | GI50 (HT-29): 18.9 µM (inactive) | GI50 (K562): 20.5 µM (inactive) | GI50 (A498): > 100 µM (inactive) | GI50 (A549): 59 µM (inactive) | GI50 (NCI-H522): 28 µM (inactive) | GI50 (Malme-3M): 19 µM (inactive) | GI50 (SK-MEL-2): 38.1 µM (inactive) | GI50 (EKVX): > 100 µM (inactive) | GI50 (T47D): 20.5 µM (inactive) | GI50 (UACC-62): 3.15 µM (inactive) | GI50 (SK-MEL-28): 28.4 µM (inactive) | GI50 (HCT-116): 27.1 µM (inactive) | GI50 (SF-539): 17.1 µM (inactive) | GI50 (M14): 35.6 µM (inactive) | GI50 (786-0): 33.3 µM (inactive) | GI50 (LOX IMVI): 28.2 µM (inactive) | GI50 (HL-60): 0.199 µM (active) | GI50 (SF-268): 38.9 µM (inactive) | GI50 (SNB-75): 20.7 µM (inactive) | GI50 (CCRF-CEM): 14.1 µM (inactive) | GI50 (U-251): 41.5 µM (inactive) | GI50 (HCC 2998): 27.5 µM (inactive) | GI50 (SNB-19): > 100 µM (inactive) | GI50 (ACHN): 29.9 µM (inactive) | GI50 (MCF7): 33.2 µM (inactive) | GI50 (Hs-578T): 56.1 µM (inactive) | GI50 (HCT-15): 77.6 µM | GI50 (TK-10): > 100 µM (inactive) | GI50 (MOLT-4): 15.3 µM (inactive) | GI50 (MDA-N): 45.1 µM (inactive) | GI50 (OVCAR-4): 24.7 µM (inactive) | GI50 (HOP-62): 67.3 µM (inactive) | GI50 (SF-295): 52.1 µM (inactive) | GI50 (PC-3): 29.1 µM (inactive) | GI50 (NCI-H460): 98.2 µM (inactive) | GI50 (NCI-H226): 14.1 µM (inactive) | GI50 (SN12C): 78.3 µM (inactive) | GI50 (SK-OV-3): 56.5 µM (inactive) | GI50 (MDA-MB-435): 32.1 µM (inactive) | GI50 (OVCAR-8): 34 µM (inactive) | GI50 (SW-620): 28.1 µM (inactive) | GI50 (RXF 393): 19.9 µM (inactive) | GI50 (SR): 20.2 µM (inactive) | GI50 (CAKI-1): 39.4 µM (inactive) | GI50 (NCI-H23): 41.5 µM (inactive) | GI50 (RPMI-8226): 13.1 µM (inactive) | GI50 (DU-145): 41.4 µM (inactive) | GI50 (OVCAR-3): 34.2 µM (inactive) | GI50 (UO-31): 32.6 µM (inactive) | GI50 (SK-MEL-5): 16 µM (inactive) | GI50 (NCI/ADR-RES): 33 µM (inactive) | GI50 (IGROV-1): 31 µM (inactive) | GI50 (MDA-MB-231): 52.1 µM (inactive) | GI50 (BT-549): 35 µM (inactive) | GI50 (OVCAR-5): 41 µM (inactive)

COc1ccc2c(c1)CCCC(Br)C2=O (stereo not drawn)
GI50 (KM12): 3.24 µM (inactive) | GI50 (UACC-257): 11.5 µM (inactive) | GI50 (COLO 205): 3.44 µM (inactive) | GI50 (HOP-92): 7.57 µM (inactive) | GI50 (HT-29): 5.31 µM (inactive) | GI50 (K562): 0.447 µM (active) | GI50 (A498): 19.6 µM (inactive) | GI50 (A549): 4.71 µM (inactive) | GI50 (NCI-H522): 0.265 µM (active) | GI50 (Malme-3M): 4.48 µM (inactive) | GI50 (SK-MEL-2): 1.24 µM (inactive) | GI50 (EKVX): 18.1 µM (inactive) | GI50 (T47D): 23.9 µM (inactive) | GI50 (UACC-62): 2.8 µM (inactive) | GI50 (SK-MEL-28): 6.92 µM (inactive) | GI50 (HCT-116): 0.407 µM (active) | GI50 (SF-539): 2.56 µM (inactive) | GI50 (M14): 3.4 µM (inactive) | GI50 (786-0): 4.15 µM (inactive) | GI50 (LOX IMVI): 0.379 µM (active) | GI50 (HL-60): 3.59 µM (inactive) | GI50 (SF-268): 3.35 µM (inactive) | GI50 (SNB-75): 12.6 µM (inactive) | GI50 (CCRF-CEM): 0.337 µM (active) | GI50 (U-251): 4.72 µM (inactive) | GI50 (HCC 2998): 7.66 µM (inactive) | GI50 (SNB-19): 8.18 µM (inactive) | GI50 (ACHN): 6.32 µM (inactive) | GI50 (MCF7): 3.43 µM (inactive) | GI50 (Hs-578T): 17.1 µM (inactive) | GI50 (HCT-15): 0.929 µM | GI50 (TK-10): 4.21 µM (inactive) | GI50 (MOLT-4): 0.136 µM (active) | GI50 (MDA-N): 2.88 µM (inactive) | GI50 (OVCAR-4): 6.52 µM (inactive) | GI50 (HOP-62): 5.55 µM (inactive) | GI50 (SF-295): 3.99 µM (inactive) | GI50 (PC-3): 3.9 µM (inactive) | GI50 (NCI-H460): 3.18 µM (inactive) | GI50 (NCI-H226): 2.18 µM (inactive) | GI50 (SN12C): 2.75 µM (inactive) | GI50 (SK-OV-3): 3.97 µM (inactive) | GI50 (MDA-MB-435): 2.02 µM (inactive) | GI50 (OVCAR-8): 3.98 µM (inactive) | GI50 (SW-620): 2.29 µM (inactive) | GI50 (RXF 393): 4.78 µM (inactive) | GI50 (SR): 0.294 µM (active) | GI50 (CAKI-1): 2.96 µM (inactive) | GI50 (NCI-H23): 4.9 µM (inactive) | GI50 (RPMI-8226): 2.34 µM (inactive) | GI50 (DU-145): 15.1 µM (inactive) | GI50 (OVCAR-3): 9.08 µM (inactive) | GI50 (UO-31): 2.17 µM (inactive) | GI50 (SK-MEL-5): 2.55 µM (inactive) | GI50 (NCI/ADR-RES): 4.34 µM (inactive) | GI50 (IGROV-1): 1.51 µM (inactive) | GI50 (MDA-MB-231): 2.92 µM (inactive) | GI50 (BT-549): 2.55 µM (inactive) | GI50 (OVCAR-5): 5.92 µM (inactive)

— ChEMBL document CHEMBL1201862, “PubChem BioAssay data set” (2004)
